Results: US7902225B2, “Mycobacterial inhibitors” (Janssen Pharmaceutica NV, priority 2005, dated 2011)
Counter-ions that a name gives are not always drawn.

What was measured:
M. Smegmatis ATCC607 = experiment: In-vitro anti-bacterial activity against strain M. smegmatis ATCC607 (growth inhibition, Alamar Blue fluorescence); type: cell-based; conditions: 48 hours at 37° C.; for IC50: Mycolicibacterium smegmatis, read-out: M. smegmatis (pIC50) (converted)
Experimental: D.2. In-vitro Method for Testing Compounds for Anti-bacterial Activity Against Strain M. Smegmatis ATCC607. Flat-bottom, sterile 96well plastic microtiter plates were filled with 180 μl of sterile deionized water, supplemented with 0.25% BSA. Subsequently, stock solutions (7.8× final test concentration) of compounds were added in 45 μl volumes to a series of duplicate wells in column 2 so as to allow evaluation of their effects on bacterial growth. Serial five-fold dilutions (45 μl in 180 μl) were made directly in the microtiter plates from column 2 to 11 using a customised robot system (Zymark Corp., Hopkinton, Mass.). Pipette tips were changed after every 3 dilutions to minimize pipetting errors with high hydrophobic compounds. Untreated control samples with (column 1) and without (column 12) inoculum were included in each microtiter plate. Approximately 250 CFU per well of bacteria inoculum, in a volume of 100 μl in 2.8× Mueller-Hinton broth medium, was added to the rows […]. The same volume of broth medium without inoculum was added to column 12 in row A to H. The cultures were incubated at 37° C. for 48 hours in a humidified 5% CO2 atmosphere (incubator with open air valve and continuous ventilation). At the end of incubation, two days after inoculation, the bacterial growth was quantitated fluorometrically. Therefore Alamar Blue (10×) was added to all wells in a volume of 20 μl and plates were incubated for another 2 hours at […] The fluorescence was read in a computer-controlled fluorometer (Cytofluor, Biosearch) at an excitation wavelength of 530 nm and an emission wavelength of 590 nm (gain 30). The % growth inhibition achieved by the compounds was calculated according to standard methods. The pIC50 was defined as the 50% inhibitory concentration for bacterial growth.

[1] = system: Mycobacterium tuberculosis (strain H37RV); experiment: In-vitro testing of compounds against M. tuberculosis (growth inhibition, Resazurin fluorescence); type: cell-based; conditions: bacterial growth inhibition, 7 days at 37° C.; for IC50: Mycobacterium tuberculosis, 168 h, read-out: M. tuberculosis (pIC50) (converted)

SMILES | IC50 (M. Smegmatis ATCC607) [µM] | melting point [°C] | other results
CN(C)CCC(O)(c1ccccc1)c1cc(Br)cc2cc(Cc3ccccc3)c(OCCN3CCCCC3)nc12 (stereo not shown) [Compound 11] | 3.16 |  | IC50 [1]: 3.16 µM
CN(C)CCC(O)(Cc1c(Cc2ccccc2)c(-c2cccnc2)nc2ccccc12)c1cc(F)cc(F)c1 (stereo not shown) [Compound 9] | 6.31 | 164 | 
CN(C)CCC(O)(Cc1c(Cc2ccccc2)c(-c2ccco2)nc2ccccc12)c1cc(F)cc(F)c1 (stereo not shown) [Compound 5] | 0.398 | 130 | 
CN(C)CCC(O)(c1ccccc1)c1cc(Br)cc2cc(Cc3ccccc3)c(N3CCOCC3)nc12 (stereo not shown) [Compound 7] | 1.58 | 70 | 
COc1nc2c(C(O)(CCN(C)C)c3ccccc3)cc(Br)cc2cc1Cc1ccccc1 (stereo not shown) [Compound 3] | 1.26 | 66 | 
COc1nc2c(C(O)(CCN(C)C)c3cc(F)cc(F)c3)cc(-c3cccnc3)cc2cc1-c1ccccc1 (stereo not shown) (as salt: salt) [Compound 13] |  | 156 | 
CN(C)CCOc1nc2c(C(O)(CCN(C)C)c3ccccc3)cc(Br)cc2cc1Cc1ccccc1 (stereo not shown) [Compound 75] | 6.31 |  | IC50 [1]: 5.01 µM
CN(C)CCC(O)(c1cc(F)cc(F)c1)c1ccc2nc(-c3cccnc3)cc(-c3ccccc3)c2c1 (stereo not shown) (as salt: salt) [Compound 8] |  | 151 | 
CN(C)CCC(O)(c1cc(F)cc(F)c1)c1cccc2nc(N(C)C)c(-c3ccccc3)cc12 (stereo not shown) (as salt: salt) [Compound 10] |  | 136 | 
CN(C)CCC(O)(c1ccccc1)c1cc(Br)cc2cc(Cc3ccccc3)c(N3CCN(Cc4ccccc4)CC3)nc12 (stereo not shown) [Compound 79] |  |  | M. smegmatis (pIC50) (M. Smegmatis ATCC607): 6.2; M. tuberculosis (pIC50) [1]: 4.6
CN(C)CCC(O)(c1cccc2ccccc12)c1cc(Br)cc2cc(-c3ccccc3)c(=O)[nH]c12 (stereo not shown) |  | 190 | 
CN(C)CCC(O)(c1cccc2ccccc12)c1cc(Br)cc2cc(-c3ccccc3)c(-n3cncn3)nc12 (stereo not shown) [Compound 56] |  |  | M. smegmatis (pIC50) (M. Smegmatis ATCC607): 5.8
COc1nc2c(C(O)(CCN(C)C)c3ccccc3)cc(-c3cccnc3)cc2cc1Cc1ccccc1 (stereo not shown) [Compound 14] | 7.94 | 180 | 
CN(C)CCC(O)(c1ccccc1)c1cc(Br)cc2cc(Cc3ccccc3)c(N3CCCC3)nc12 (stereo not shown) [Compound 80] |  |  | M. smegmatis (pIC50) (M. Smegmatis ATCC607): 6.1; M. tuberculosis (pIC50) [1]: 5.05
CN(C)CCC(O)(c1cccc2ccccc12)c1cc(Br)cc2cc(Cc3ccccc3)c(N3CCOCC3)nc12 (stereo not shown) [Compound 51] | 1 |  | 
CN(C)CCC(O)(c1ccccc1)c1cc(Br)cc2cc(Cc3ccccc3)c(N3CCN(c4ccccn4)CC3)nc12 (stereo not shown) [Compound 85] |  |  | M. smegmatis (pIC50) (M. Smegmatis ATCC607): 5.7
COCCCNc1nc2c(C(O)(CCN(C)C)c3ccccc3)cc(Br)cc2cc1Cc1ccccc1 (stereo not shown) [Compound 90] |  |  | M. smegmatis (pIC50) (M. Smegmatis ATCC607): 5.5
CN(C)CCC(O)(c1cc(F)cc(F)c1)c1ccc2nc(-c3cccnc3)cc(-c3ccccc3)c2c1 (stereo not shown) [Compound 8] | 1.58 |  | 
CN(C)CCC(O)(c1ccccc1)c1cc(Br)cc2cc(Cc3ccccc3)c(-n3ccnc3)nc12 (stereo not shown) [Compound 59] |  |  | M. smegmatis (pIC50) (M. Smegmatis ATCC607): 5.8
CN(C)CCC(O)(c1ccccc1)c1cc(Br)cc2cc(-c3ccccc3)c(-n3cncn3)nc12 (stereo not shown) [Compound 66] | 12.6 |  | 
CN(C)CCC(O)(c1cccs1)c1cc(Br)cc2cc(Cc3ccccc3)c(N3CCN(C)CC3)nc12 (stereo not shown) [Compound 35] | 1.58 |  | 
CN(C)CCC(O)(c1cc(F)cc(F)c1)c1cccc2nc(N(C)C)c(-c3ccccc3)cc12 (stereo not shown) [Compound 10] | 2 |  | 
CN(C)CCC(O)(c1ccc2nc(-c3cccnc3)cc(-c3ccccc3)c2c1)c1ccco1 (stereo not shown) [Compound 72] | 6.31 |  | 
COc1cc(-c2ccccc2)c2cc(C(O)(CCN(C)C)c3ccco3)ccc2n1 (stereo not shown) [Compound 29] | 31.6 |  | 
CN(C)CCC(O)(c1ccco1)c1cc(Br)cc2cc(-c3ccccc3)c(-n3cncn3)nc12 (stereo not shown) [Compound 68] | 31.6 |  | 
